Reference: paper PMC8151276, “An Integrated Approach toward NanoBRET Tracers for Analysis of GPCR Ligand Engagement” (Molecules, 2021)

Experiments:
Type in all cases: binding
[1] = biological target: T1, HRH2 (Homo sapiens, UniProt P25021); assay: NanoBRET screen HiBiT-HRH2 in HEK293
T1 construct: purchased Promega (in-house HiBiT-GPCR construct library, NanoBRET)
Method: (§1) Each tracer candidate was screened across the entire library of HiBiT-GPCR constructs using NanoBRET as the detection modality. As depicted in Figure 4A, the specificity of interactions was evaluated through decrease in BRET due to competitive displacement of a bound tracer by excess parental compound. Each tracer was analyzed for binding to each HiBiT-GPCR fusion in the absence and in the presence of competing parental compound. Briefly, HEK293 cells were transfected with HiBiT-GPCR constructs diluted into promoterless DNA to reduce expression and maximize translocation to the cell surface. Each tracer candidate was then screened at concentrations of 1 μM and 0.1 μM across cells expressing these fusions. Cells were treated for 1.5 h with tracer either alone or in the presence of 20 μM competing parental compound (i.e., control). BRET was measured upon addition of purified LgBiT and subsequent complementation with HiBiT genetically fused to a GPCR. The specificity of interactions was assessed through a decrease in BRET signal due to competitive displacement of the bound tracer. To further gauge the robustness of these interactions, the fold response over the control (i.e., BRETtracer/BRETcontrol) was calculated. We chose a 1.5-fold response, which translates to ≥7-fold signal over noise as the minimal threshold required to score an interaction as positive. […]. Below we highlight the screening results obtained for our exemplary fluorescent tracers based on Clozapine, Amitriptyline and AZD1283.
(§2) HiBiT-GPCR DNA constructs were diluted in 10 mM Tris pH 8 to a final concentration of 0.01 μg/μL, arrayed in 96-well plates and stored at −20 °C. For transfection, HEK293 cells were suspended in Opti-MEM (without phenol red) supplemented with 2% fetal bovine serum (Seradigm) and 100 units/mL penicillin–streptomycin (Gibco) at a final concentration of 220,000 cells/mL and dispensed into white 96-well plates at 90 μL/well. Subsequent transfections and screens were carried using an Agilent Bravo Automated Liquid Handling Platform. First, the 96-well HiBiT DNA arrays were diluted 25-fold in Opti-MEM (without serum or phenol red) to a final concentration of 0.0004 μg/μL and 20 μL of the diluted DNAs were transferred into new 96-well plates. Next, promoterless carrier DNA (1 μg/μL) was diluted 25-fold (0.04 μg/μL) and then dispensed into the diluted arrays at 20 μL/well. Following brief mixing, Viafect transfection reagent (Promega) diluted 16-fold into Opti-MEM was dispensed into the plates at 40 μL/well. After mixing by pipetting, plates were incubated for 10 min on the pipetting station deck. The DNA-transfection reagent complexes were then added to plates containing cells. To facilitate the screen, 10 μL of DNA-transfection reagent complexes were added in duplicates to the top 4 and bottom 4 rows, resulting in two identical 48-well arrays per plate. Plates with transfected cells were incubated for 18–20 h at 37 °C/5% CO2. A screen of each tracer across the entire library using two different concentrations requires duplicate plates of transfected cells. Depending on the number of tracers being screened, transfections can be scaled up using the same ratios. The next day, for each tracer, four 20× screening solutions in tracer dilution buffer (Promega) were prepared: two duplicates at final concentration of 20 μM and two duplicates at a final concentration of 2 μM. A competing unmodified compound was added to one of each duplicate at a final concentration of 400 μM. The four resulting solutions were diluted 4-fold in Opti-MEM without serum or phenol red to generate 5× solutions (5 µM and 0.5 µM tracer +/− 100 μM competing compound). To screen the library, a BioTek MultiFlo FX liquid dispenser was used to dispense 22.5 µL of tracer solution to the top 4 rows and 22.5 µL tracer + competing compound solution to the 4 bottom rows. Plates were briefly mixed on an orbital shaker and incubated for 1.5 h at room temperature. […]

[2] = biological target: T2, ADRA2C (Homo sapiens, UniProt P18825); assay: NanoBRET screen HiBiT-ADRA2C in HEK293
T2 construct: purchased Promega (in-house HiBiT-GPCR construct library, NanoBRET)
T2 sequence (P18825 1-462): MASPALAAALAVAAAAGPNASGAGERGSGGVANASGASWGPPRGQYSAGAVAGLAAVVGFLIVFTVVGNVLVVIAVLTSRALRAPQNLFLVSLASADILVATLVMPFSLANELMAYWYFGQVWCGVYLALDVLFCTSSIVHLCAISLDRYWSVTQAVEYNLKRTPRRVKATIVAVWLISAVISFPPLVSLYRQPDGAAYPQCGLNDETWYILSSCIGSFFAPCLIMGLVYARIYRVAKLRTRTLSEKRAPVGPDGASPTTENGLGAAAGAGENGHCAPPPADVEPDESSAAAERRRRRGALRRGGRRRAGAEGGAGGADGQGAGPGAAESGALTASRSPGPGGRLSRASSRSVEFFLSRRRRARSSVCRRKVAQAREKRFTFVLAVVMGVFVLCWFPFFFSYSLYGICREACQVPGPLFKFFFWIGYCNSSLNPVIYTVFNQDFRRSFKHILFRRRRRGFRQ
Method: as §1, §2

[3] = biological target: T3, MC3R (Homo sapiens, UniProt P41968); assay: NanoBRET screen HiBiT-MC3R in HEK293
T3 construct: purchased Promega (in-house HiBiT-GPCR construct library, NanoBRET)
T3 sequence (P41968 whole entry): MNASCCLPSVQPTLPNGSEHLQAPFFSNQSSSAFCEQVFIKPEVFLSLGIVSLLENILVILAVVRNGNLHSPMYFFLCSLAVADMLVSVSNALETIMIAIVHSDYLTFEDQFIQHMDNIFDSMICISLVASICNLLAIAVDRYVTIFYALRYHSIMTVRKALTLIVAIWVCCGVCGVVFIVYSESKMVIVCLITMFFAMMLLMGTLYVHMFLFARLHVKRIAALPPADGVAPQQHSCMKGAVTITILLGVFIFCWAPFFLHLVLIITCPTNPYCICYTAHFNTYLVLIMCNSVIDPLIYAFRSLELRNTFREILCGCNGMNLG
Method: as §1, §2

[4] = biological target: T4, LTB4R (Homo sapiens, UniProt Q15722); assay: NanoBRET screen HiBiT-LTB4R in HEK293
T4 construct: purchased Promega (in-house HiBiT-GPCR construct library, NanoBRET)
T4 sequence (Q15722 whole entry): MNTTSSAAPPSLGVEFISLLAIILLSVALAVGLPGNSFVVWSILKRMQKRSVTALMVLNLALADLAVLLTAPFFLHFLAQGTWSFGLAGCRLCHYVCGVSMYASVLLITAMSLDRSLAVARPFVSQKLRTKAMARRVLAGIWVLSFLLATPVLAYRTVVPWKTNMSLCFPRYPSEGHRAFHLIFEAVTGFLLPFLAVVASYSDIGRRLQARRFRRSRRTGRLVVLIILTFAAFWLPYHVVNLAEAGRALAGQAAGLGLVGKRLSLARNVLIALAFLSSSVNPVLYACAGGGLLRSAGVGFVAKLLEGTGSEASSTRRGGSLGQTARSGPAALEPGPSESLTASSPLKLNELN
Method: as §1, §2

[5] = biological target: T5, VIPR1 (Homo sapiens, UniProt P32241); assay: NanoBRET screen HiBiT-VIPR1 in HEK293
T5 construct: purchased Promega (in-house HiBiT-GPCR construct library, NanoBRET)
T5 sequence (P32241 31-457): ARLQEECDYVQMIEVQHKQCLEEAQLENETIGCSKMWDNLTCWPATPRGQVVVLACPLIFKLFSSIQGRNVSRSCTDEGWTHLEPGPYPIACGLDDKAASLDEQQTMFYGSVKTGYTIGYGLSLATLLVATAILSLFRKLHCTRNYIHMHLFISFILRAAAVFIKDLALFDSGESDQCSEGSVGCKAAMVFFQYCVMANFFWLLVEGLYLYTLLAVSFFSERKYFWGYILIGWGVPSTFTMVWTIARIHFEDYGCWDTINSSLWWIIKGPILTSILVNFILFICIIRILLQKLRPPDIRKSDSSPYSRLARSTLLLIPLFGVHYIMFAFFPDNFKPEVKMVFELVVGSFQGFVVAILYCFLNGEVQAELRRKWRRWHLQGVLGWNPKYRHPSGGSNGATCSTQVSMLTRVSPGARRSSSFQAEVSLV
Method: as §1, §2

[6] = biological target: T6, OXER1 (Homo sapiens, UniProt Q8TDS5); assay: NanoBRET screen HiBiT-OXER1 in HEK293
T6 construct: purchased Promega (in-house HiBiT-GPCR construct library, NanoBRET)
T6 sequence (Q8TDS5 whole entry): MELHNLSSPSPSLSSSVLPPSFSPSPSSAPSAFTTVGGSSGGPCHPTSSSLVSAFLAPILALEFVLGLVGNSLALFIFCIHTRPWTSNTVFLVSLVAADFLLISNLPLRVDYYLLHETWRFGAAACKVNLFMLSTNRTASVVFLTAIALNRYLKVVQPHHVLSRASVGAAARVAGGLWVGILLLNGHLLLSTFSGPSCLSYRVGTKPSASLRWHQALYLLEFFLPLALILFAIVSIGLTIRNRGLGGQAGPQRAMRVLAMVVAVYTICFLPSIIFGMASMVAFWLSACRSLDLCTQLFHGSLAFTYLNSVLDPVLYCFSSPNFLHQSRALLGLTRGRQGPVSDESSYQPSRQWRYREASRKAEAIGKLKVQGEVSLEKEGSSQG
Method: as §1, §2

T1 sequence (P25021 whole entry): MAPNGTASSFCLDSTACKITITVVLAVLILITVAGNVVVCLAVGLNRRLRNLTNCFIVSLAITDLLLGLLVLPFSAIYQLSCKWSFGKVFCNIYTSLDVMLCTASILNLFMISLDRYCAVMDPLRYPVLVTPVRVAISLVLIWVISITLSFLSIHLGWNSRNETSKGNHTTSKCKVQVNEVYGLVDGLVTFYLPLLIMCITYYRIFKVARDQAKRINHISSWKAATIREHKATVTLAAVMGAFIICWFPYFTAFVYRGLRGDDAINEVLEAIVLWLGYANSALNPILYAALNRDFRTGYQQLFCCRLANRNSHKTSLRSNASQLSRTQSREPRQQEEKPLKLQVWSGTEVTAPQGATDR

Structure (SMILES)	NanoBRET Fold Response ([1]; HRH2, tracer 0.1μM)	NanoBRET Fold Response ([1]; HRH2, tracer 1μM)	NanoBRET Fold Response ([2]; ADRA2C, tracer 1μM)	NanoBRET Fold Response ([3]; MC3R, tracer 0.1μM)	NanoBRET Fold Response ([3]; MC3R, tracer 1μM)	NanoBRET Fold Response ([4]; LTB4R, tracer 0.1μM)	NanoBRET Fold Response ([4]; LTB4R, tracer 1μM)	NanoBRET Fold Response ([5]; VIPR1, tracer 0.1μM)	NanoBRET Fold Response ([5]; VIPR1, tracer 1μM)	NanoBRET Fold Response ([6]; OXER1, tracer 0.1μM)	NanoBRET Fold Response ([6]; OXER1, tracer 1μM)	NanoBRET Fold Response ([2]; ADRA2C, tracer 0.1μM)	NanoBRET Fold Response ([1]; HRH2, 0.1μM tracer)	NanoBRET Fold Response ([1]; HRH2, 1μM tracer)	NanoBRET Fold Response ([2]; ADRA2C, 0.1μM tracer)	NanoBRET Fold Response ([2]; ADRA2C, 1μM tracer)	NanoBRET Fold Response ([3]; MC3R, 0.1μM tracer)	NanoBRET Fold Response ([3]; MC3R, 1μM tracer)	NanoBRET Fold Response ([4]; LTB4R, 0.1μM tracer)	NanoBRET Fold Response ([4]; LTB4R, 1μM tracer)	other results
O=C(CCc1ccc2n1[B-](F)(F)[N+]1=C(c3ccc[nH]3)C=CC1=C2)NCCOCCOCCNC(=O)OCCOCCN1CCN(C2=Nc3ccccc3Sc3ccccc32)CC1 [Quetiapine-a-2-NB590]	0.81	1.05	1.42	0.98	1.08	1.27	1.40	1.03	0.92	0.99	0.98	–	–	–	–	–	–	–	–	–	–
COc1ccccc1N1CCN(CCCCN2C(=O)c3ccc(CNC(=O)CCOCCOCCOCCOCCNC(=O)CCc4ccc5n4[B-](F)(F)[N+]4=C(c6ccc[nH]6)C=CC4=C5)cc3C2=O)CC1 [NAN-190-2-NB590]	0.94	–	0.89	1.03	1.00	–	0.96	1.00	1.02	0.95	–	1.22	–	–	–	–	–	–	–	–	–
CN1CCN(C2=Nc3cc(Cl)ccc3N(CC(=O)NCCOCCOCCOCCOCCNC(=O)CCc3ccc4n3[B-](F)(F)[N+]3=C(c5ccc[nH]5)C=CC3=C4)c3ccccc32)CC1 [Clozapine-c-2-NB590]	–	–	–	–	–	–	–	–	–	–	–	–	0.92	0.95	1.05	1.49	1.02	1.03	1.05	0.95	NanoBRET Fold Response ([5]; VIPR1, 0.1μM tracer): 0.98; NanoBRET Fold Response ([5]; VIPR1, 1μM tracer): 1.00; NanoBRET Fold Response ([6]; OXER1, 0.1μM tracer): 1.00; NanoBRET Fold Response ([6]; OXER1, 1μM tracer): 0.94
COc1ccc2[nH]c(-c3ccc(CNC(=O)CCOCCOCCOCCOCCNC(=O)CCc4ccc5n4[B-](F)(F)[N+]4=C(c6ccc[nH]6)C=CC4=C5)cc3)c(CCNC(C)=O)c2n1 [AzomelatoninICO9-2-NB590]	–	–	–	–	–	–	–	–	–	–	–	–	–	–	–	–	–	–	–	–	NanoBRET Fold Response ([1]; 0.1μM tracer): 1.11; NanoBRET Fold Response ([1]; 1μM tracer): 1.07; NanoBRET Fold Response ([2]; 0.1μM tracer): 1.08; NanoBRET Fold Response ([2]; 1μM tracer): 1.17; NanoBRET Fold Response ([3]; 0.1μM tracer): 1.02; NanoBRET Fold Response ([3]; 1μM tracer): 0.72; NanoBRET Fold Response ([4]; 0.1μM tracer): 1.07; NanoBRET Fold Response ([4]; 1μM tracer): 0.99; NanoBRET Fold Response ([5]; 0.1μM tracer): 0.89; NanoBRET Fold Response ([5]; 1μM tracer): 0.81; NanoBRET Fold Response ([6]; 0.1μM tracer): 1.11; NanoBRET Fold Response ([6]; 1μM tracer): 0.83
O=C(CCOCCOCCOCCOCCNC(=O)CCc1ccc2n1[B-](F)(F)[N+]1=C(c3ccc[nH]3)C=CC1=C2)NCCCN1CCN(C2=Nc3cc(Cl)ccc3Nc3ccccc32)CC1 [Clozapine-a-2-NB590]	–	–	–	–	–	–	–	–	–	–	–	–	0.95	0.89	1.80	1.62	1.02	0.95	1.05	0.94	NanoBRET Fold Response ([5]; VIPR1, 0.1μM tracer): 0.98; NanoBRET Fold Response ([5]; VIPR1, 1μM tracer): 1.10; NanoBRET Fold Response ([6]; OXER1, 0.1μM tracer): 0.95; NanoBRET Fold Response ([6]; OXER1, 1μM tracer): 1.00
CCCn1c(=O)c2[nH]c(-c3ccc(OCC(=O)NCCNC(=O)CCOCCNC(=O)c4ccc(CNC(=O)CCc5ccc6n5[B-](F)(F)[N+]5=C(c7ccc[nH]7)C=CC5=C6)cc4)cc3)nc2n(CCC)c1=O [XAC-3-NB590]	0.82	1.15	1.20	1.04	1.10	1.09	1.11	1.03	0.99	1.04	0.96	0.77	–	–	–	–	–	–	–	–	–
